From patent publication US4124723A, “Method for suppressing histamine release” (Carter-Wallace, Inc., priority 1977, dated 1978)

How the values were obtained:
[1] = tested on: ragweed-sensitized rabbits; test: Inhibition of histamine release after oral administration to ragweed-sensitized rabbits (in vivo); conditions: 100 mg/kg oral, rabbit, 50 μg antigen N per ml
Protocol: Five ml of blood was drawn by cardiac puncture from a ragweed-sensitized rabbit to ascertain the basic histamine content of the blood. The amount of histamine released by the addition of 50 μg of antigen N per ml of the assay system was determined. The rabbit was then treated orally with 100 mg/kg of drug using a catheter. One and 5 hr following administration of drug, 5 ml of blood was withdrawn and assayed for histamine by the spectrofluorometric method described by P. A. Shore, A. Burkhalter and V. H. Cohn, Jr., J. PHARMACOL. and EXPTL. THERAP., 127:182, 1959. The percentage inhibition of histamine release was computed from the amount of histamine released before and at 1 and 5 hr following administration of drug.

[2] = tested on: sensitized rabbit leukocytes; test: Inhibition of histamine release from sensitized rabbit leukocytes (in vitro); format: cell-based; conditions: for IC50: Oryctolagus cuniculus, Leukocyte, ragweed-sensitized rabbit leukocytes, ragweed antigen, with S.E.M., read-out: ED50 + S.E.M. (molar concentration required to give 50% inhibition of histamine release); for Relative in vitro Inhibition of Histamine Release: relative to chlorphenesin = 1
Protocol: The procedure published by L. M. Lichtenstein and A. G. Osler, J. EXPTL. MEDICINE, 120:507-530, 1964, for the determination of histamine from human leukocytes, was used to measure histamine release from sensitized rabbit leukocytes. Forty-five ml of blood, drawn by cardiac puncture from ragweed-sensitized rabbits with a plastic syringe containing 250 units of heparin in 5 ml of physiological saline solution, was used. Measurements were made of the total amount of histamine in the leukocytes, the amount of histamine released with the specific antigen (ragweed), the amount of histamine released spontaneously (cell blanks), and the amount of histamine released in the presence of various concratrations of drugs under test.
Appropriate controls for buffer antigen and drugs were included and an internal histamine standard curve was established with each experiment. Inhibition of histamine release was computed from the amount of histamine released by the ragweed antigen in the presence and absence of the drug, i.e., the difference between the quantity of histamine released spontaneously and the amount released by antigen.

human leukocytes = conditions: reported by Lichtenstein and Adkinson, J. Immunology 103:866, 1969; cited from earlier work

## O=C(O)CCCSc1ccc(Cl)cc1 [Compound 1, Sodium 4-(p-Chlorophenylthio)butyrate]
[1]; 5 hrs after drug
  percentage inhibition of histamine release: 10-15%
[1]; one hour after drug
  percentage inhibition of histamine release: 30-40%
[2]
  IC50: 6 µM
  Relative in vitro Inhibition of Histamine Release: 55

## O=C(O)CSc1ccc(Cl)cc1 [Compound 2, 2-(p-Chlorophenylthio)acetic acid]
[2]
  IC50: 44 µM
  Relative in vitro Inhibition of Histamine Release: 8

## CC(=O)OCCCCSc1ccc(Cl)cc1 [Compound 3, 4-(p-Chlorophenylthio)butyl acetate]
[2]
  IC50: 6.3 µM
  Relative in vitro Inhibition of Histamine Release: 52

## COCCCCSc1ccc(Cl)cc1 [Compound 4, 4-(p-Chlorophenylthio)butyl methyl ether]
[2]
  IC50: 28 µM
  Relative in vitro Inhibition of Histamine Release: 12

## OCC(O)COc1ccc(Cl)cc1 (stereo not shown) [chlorphenesin, 3-p-chlorophenoxy-1,2-propanediol, reference compound]
[2]
  IC50: 330 µM
  Relative in vitro Inhibition of Histamine Release: 1
Human leukocytes
  inhibition of histamine release from human leukocytes: inhibit histamine release from human leukocytes
